Where two headings read alike, the source gives them in different places.
Key:
[1] = rat liver microsomes
[2] = cynomolgus monkey liver microsomes

metabolic stability in comparison to comparison example [1]: greater metabolic stability
metabolic stability in comparison to comparison example [2]: greater metabolic stability
Structure (SMILES): CCS(=O)(=O)NCc1cc(-c2nc3cc(F)c(F)cc3n2C2CC2)cnn1 [Example 52, N-((5-(1-Cyclopropyl-5,6-difluoro-1H-benzo[d]imidazol-2-yl)pyridazin-3-yl)methyl)ethanesulfonamide]
